Experimental data: US20130317045A1, “THIENOPYRIDINE AND THIENOPYRIMIDINE COMPOUNDS AND METHODS OF USE THEREOF” (AMBIT BIOSCIENCES CORPORATION, priority 2010, published 2013)

Experiments:
[1] = system: GM-CSFR/JAK2/STAT5 pathway in CSTF-1 cells; assay: CSTF-1 cell-based reporter assay (beta-lactamase, GM-CSF stimulated); parameters: species or system human; conditions: Homo sapiens; GM-CSF at 2 ng/mL, 4 hours; read-out: Cell Assay: CS TF-1 reporter assay IC50
Description: CSTF-1 Cell-Based Reporter Assay
CSTF-1 cells are derived from the human erythroleukemia cell line that is growth dependent on GM-CSF and has an intact GM-CSFR/JAK2/STAT5 pathway. The cell line contains stably integrated beta-lactamase reporter gene under the control of the […] (irf 1) response element recognized by the activated transcription factor STATS. csTF-1 cells (Invitrogen K1219) were washed with assay media (97% OPTIMEM/ 0.5% dialyzed FBS/0.1 mM NEAA/1 mM Na pyr/P/S) and seeded in the same media at 5×10^5 cell/mL in T150 flask. After 16 hour incubation, cells were seeded at 2×10^5 cell/well in 50 μl volume, into Costar, clear bottom, 96-well assay plates. Serial dilutions of compounds were added to the plates with final DMSO concentration at 0.5% and GM-CSF at 2 ng/mL and the plates were then incubated at […] and 5% CO2 for 4 hours. The plates were brought to room temperature before adding Substrate Mixture according to manufacturer's protocol (Invitrogen, Catalog #K1085). The assay plates containing the substrate mixture were incubated in the dark at room temperature for 2 hours. Blue and green fluorescence was measured with excitation at 409 nm and emission at 460 nm (for blue) and excitation at 409 nm and emission at 530 nm (for green) using Spectra Max Gemini EM.

JAK2 = molecular target: T1, JAK2 (Homo sapiens, UniProt O60674); assay: Competition binding assay, JAK2
T1 construct: made in house
T1 sequence (O60674 whole entry): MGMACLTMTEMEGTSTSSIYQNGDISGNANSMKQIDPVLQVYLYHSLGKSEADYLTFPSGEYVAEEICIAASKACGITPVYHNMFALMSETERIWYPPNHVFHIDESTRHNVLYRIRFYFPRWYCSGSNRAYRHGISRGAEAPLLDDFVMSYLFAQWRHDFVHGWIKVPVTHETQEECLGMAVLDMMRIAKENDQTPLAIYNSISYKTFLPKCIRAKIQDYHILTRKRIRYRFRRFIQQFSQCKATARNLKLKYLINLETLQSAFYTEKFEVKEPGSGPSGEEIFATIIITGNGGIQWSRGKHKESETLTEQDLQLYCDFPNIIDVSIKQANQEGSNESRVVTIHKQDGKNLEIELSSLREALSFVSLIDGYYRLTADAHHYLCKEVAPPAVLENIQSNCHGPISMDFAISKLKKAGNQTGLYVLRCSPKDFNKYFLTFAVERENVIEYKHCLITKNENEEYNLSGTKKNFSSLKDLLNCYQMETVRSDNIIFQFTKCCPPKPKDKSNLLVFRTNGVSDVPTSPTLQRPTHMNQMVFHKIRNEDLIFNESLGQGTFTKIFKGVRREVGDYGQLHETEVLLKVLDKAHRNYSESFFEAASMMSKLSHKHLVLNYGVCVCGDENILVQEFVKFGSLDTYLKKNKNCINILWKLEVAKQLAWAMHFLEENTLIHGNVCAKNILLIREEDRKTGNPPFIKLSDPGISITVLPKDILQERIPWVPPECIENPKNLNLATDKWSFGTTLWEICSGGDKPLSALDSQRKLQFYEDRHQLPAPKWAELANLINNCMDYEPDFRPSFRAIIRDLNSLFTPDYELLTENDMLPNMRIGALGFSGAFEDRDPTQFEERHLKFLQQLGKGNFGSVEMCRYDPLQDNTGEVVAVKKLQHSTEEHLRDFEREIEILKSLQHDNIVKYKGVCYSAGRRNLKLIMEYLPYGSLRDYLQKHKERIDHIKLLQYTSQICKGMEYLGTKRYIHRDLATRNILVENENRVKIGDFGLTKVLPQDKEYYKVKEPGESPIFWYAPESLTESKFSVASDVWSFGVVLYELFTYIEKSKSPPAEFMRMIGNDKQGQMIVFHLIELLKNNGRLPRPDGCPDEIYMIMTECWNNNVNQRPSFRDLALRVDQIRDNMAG
Description: (§1) Competition Binding Assay to Determine Binding Constants (Kd) of the Compounds Against JAK Kinases
(§2) Competition binding assays used herein were developed, validated and performed as described in Fabian et al., Nature Biotechnology 2005, 23,329-336. Kinases were produced as fusions to T7 phage (See, Fabian et al. or WO04/015142) or alternatively, the kinases were expressed in HEK-293 cells and subsequently tagged with DNA for PCR detection (See, WO08/005310). For the binding assays, streptavidin-coated magnetic beads were treated with biotinylated affinity ligands for 30 min at rt to generate affinity resins. The liganded beads were blocked with excess biotin and washed with blocking buffer (SeaBlock (Pierce), 1% BSA, 0.05% Tween 20, 1 mM DTT) to remove unbound ligand and to reduce non-specific binding. Binding reactions were assembled by combining kinase, liganded affinity beads, and test compounds in 1× binding buffer (20% SeaBlock, 0.17×PBS, 0.05% Tween 20, 6 mM DTT). Test compounds were prepared as 100× stocks in DMSO and rapidly diluted into the aqueous environment. DMSO was added to control assays lacking a test compound. Primary screen interactions were performed in polypropylene 384-well plates in a final volume of 34 μL, while Kd determinations were performed in polystyrene 96-well plates in a final volume of 135 μL. The assay plates were incubated at room temperature with shaking for 1 hour, long enough for binding reactions to reach equilibrium, and the affinity beads were washed extensively with wash buffer (1× PBS, 0.05% Tween 20) to remove unbound protein. The beads were then resuspended in elution buffer (1× PBS, 0.05% Tween 20, 2 μM non-biotinylated affinity ligand) and incubated at room temperature with shaking for 30 min. The kinase concentration in the eluates was measured by quantitative PCR. Each kinase was tested individually against each compound. Kds were determined using eleven serial threefold dilutions. A selectivity score, which is a quantitative measure of selectivity of a compound against a panel of enzymes, may be calculated for a compound by dividing the number of enzymes for which a compound meets a set criteria, (for example, a binding constant of 100 nM or less), by the total number of enzymes tested.

[2] = system: distinct kinases tested excluding mutant variants, typically 359 or 386 kinases; assay: Kinase selectivity score from competition binding panel; conditions: compound at 10 μM; fraction of kinases with inhibition of 90% or greater
Description: as §2

JAK3 = molecular target: T2, JAK3 (Homo sapiens, UniProt P52333); assay: Competition binding assay, JAK3
T2 construct: made in house
T2 sequence (P52333 1-1124): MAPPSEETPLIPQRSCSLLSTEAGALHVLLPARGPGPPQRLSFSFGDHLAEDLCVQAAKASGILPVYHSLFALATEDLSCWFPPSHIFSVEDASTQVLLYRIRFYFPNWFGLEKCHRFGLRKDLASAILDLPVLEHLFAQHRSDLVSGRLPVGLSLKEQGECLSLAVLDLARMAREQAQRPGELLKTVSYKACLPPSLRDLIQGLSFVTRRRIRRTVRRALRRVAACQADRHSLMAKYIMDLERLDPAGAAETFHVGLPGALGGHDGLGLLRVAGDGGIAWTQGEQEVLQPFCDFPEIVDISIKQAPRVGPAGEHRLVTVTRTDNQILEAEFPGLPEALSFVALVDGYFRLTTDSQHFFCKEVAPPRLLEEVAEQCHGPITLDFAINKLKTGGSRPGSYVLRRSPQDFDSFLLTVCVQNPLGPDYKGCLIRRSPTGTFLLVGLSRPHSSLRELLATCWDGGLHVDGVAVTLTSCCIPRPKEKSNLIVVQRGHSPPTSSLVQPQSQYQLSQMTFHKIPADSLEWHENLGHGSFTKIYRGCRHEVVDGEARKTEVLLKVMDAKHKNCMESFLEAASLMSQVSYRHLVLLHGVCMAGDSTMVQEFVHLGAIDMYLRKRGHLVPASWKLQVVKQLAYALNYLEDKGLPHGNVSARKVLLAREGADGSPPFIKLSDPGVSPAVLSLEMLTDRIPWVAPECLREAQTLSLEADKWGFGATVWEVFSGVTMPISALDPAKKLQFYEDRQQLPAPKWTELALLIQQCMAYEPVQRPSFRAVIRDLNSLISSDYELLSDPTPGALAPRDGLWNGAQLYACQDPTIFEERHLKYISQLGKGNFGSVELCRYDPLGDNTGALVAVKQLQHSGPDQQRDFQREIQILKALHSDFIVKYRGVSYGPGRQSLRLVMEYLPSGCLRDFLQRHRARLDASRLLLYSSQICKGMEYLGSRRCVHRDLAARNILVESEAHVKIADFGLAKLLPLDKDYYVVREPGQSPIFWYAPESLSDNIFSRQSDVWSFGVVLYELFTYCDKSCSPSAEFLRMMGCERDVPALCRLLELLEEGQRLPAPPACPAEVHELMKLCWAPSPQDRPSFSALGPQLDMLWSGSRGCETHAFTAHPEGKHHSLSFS
Description: as §1, §2

TYK2 = molecular target: T3, TYK2 (Homo sapiens, UniProt P29597); assay: Competition binding assay, TYK2
T3 construct: made in house
T3 sequence (P29597 whole entry): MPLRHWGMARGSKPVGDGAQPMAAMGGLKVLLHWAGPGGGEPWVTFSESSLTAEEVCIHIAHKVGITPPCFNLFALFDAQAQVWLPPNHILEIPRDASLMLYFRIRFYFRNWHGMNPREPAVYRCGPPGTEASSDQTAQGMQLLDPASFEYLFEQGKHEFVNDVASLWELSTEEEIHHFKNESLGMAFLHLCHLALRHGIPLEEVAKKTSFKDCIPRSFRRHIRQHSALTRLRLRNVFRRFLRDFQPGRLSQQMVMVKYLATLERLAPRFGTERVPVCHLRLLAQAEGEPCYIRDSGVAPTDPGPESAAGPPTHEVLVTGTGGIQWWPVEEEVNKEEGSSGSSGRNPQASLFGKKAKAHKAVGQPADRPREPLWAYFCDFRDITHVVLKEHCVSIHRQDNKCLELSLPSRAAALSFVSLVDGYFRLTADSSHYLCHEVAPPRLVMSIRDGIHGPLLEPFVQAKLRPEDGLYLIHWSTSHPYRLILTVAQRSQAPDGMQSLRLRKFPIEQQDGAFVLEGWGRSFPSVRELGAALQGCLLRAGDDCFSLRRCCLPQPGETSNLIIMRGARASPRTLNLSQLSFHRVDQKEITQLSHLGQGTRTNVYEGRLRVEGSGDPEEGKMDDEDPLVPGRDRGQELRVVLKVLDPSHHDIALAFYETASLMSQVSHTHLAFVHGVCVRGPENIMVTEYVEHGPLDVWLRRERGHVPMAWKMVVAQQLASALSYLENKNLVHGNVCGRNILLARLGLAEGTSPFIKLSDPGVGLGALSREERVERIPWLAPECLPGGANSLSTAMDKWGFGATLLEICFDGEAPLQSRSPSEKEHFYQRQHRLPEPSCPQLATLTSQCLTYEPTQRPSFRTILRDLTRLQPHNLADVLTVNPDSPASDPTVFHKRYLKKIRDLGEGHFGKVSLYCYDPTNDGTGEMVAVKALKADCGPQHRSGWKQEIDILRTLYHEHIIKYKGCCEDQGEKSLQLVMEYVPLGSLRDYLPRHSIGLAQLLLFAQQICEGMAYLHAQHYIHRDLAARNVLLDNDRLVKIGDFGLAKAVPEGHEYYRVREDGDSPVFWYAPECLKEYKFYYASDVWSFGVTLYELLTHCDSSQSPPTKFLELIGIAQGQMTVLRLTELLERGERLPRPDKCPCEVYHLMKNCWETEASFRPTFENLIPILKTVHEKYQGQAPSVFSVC
Description: as §1, §2

Row | Compound | IC50 [1] [nM] | Kd (JAK2) [nM] | S-Score: S(10) at 10 μM [2] | Kd (JAK3) [nM] | Kd (TYK2) [nM]
1 | Cc1cc(Nc2nc(C(O)c3ccc(F)cc3)nc3sccc23)n[nH]1 (racemic) [Example 4, (R,S)-(4-fluorophenyl)(4-(5-methyl-1H-pyrazol-3-ylamino)thieno[2,3-d]pyrimidin-2-yl)methanol] | ≤ 100 | ≤ 1 | B (0.3 < B ≦ 0.4) | ≤ 10 | ≤ 10
2 | Cc1cc(Nc2nc(C(O)c3ccc(F)cc3)nc3ccsc23)n[nH]1 (racemic) [Example 6, (R,S)-4-Fluorophenyl)(4-(5-methyl-1H-pyrazol-3-ylamino)thieno[3,2-d]pyrimidin-2-yl)methanol] | ≤ 100 | ≤ 1 | A (A ≦ 0.3) | ≤ 10 | ≤ 10
3 | COC(c1ccc(F)cc1)c1nc(Nc2cc(C)[nH]n2)c2ccsc2n1 (racemic) [Example 9, (R,S)-2-((4-fluorophenyl)(methoxy)methyl)-N-(5-methyl-1H-pyrazol-3-yl)thieno[2,3-d]pyrimidin-4-amine] | 100 to 500 | ≤ 1 | A (A ≦ 0.3) | 10 to 100 | ≤ 10
4 | Cc1cc(Nc2nc(C(O)c3ccc(F)cc3)nc3scc(C)c23)n[nH]1 (racemic) [Example 11, (R,S)-(4-Fluorophenyl)(5-methyl-4-(5-methyl-1H-pyrazol-3-ylamino)thieno[2,3-d]pyrimidin-2-yl)methanol] | > 500 | > 10 | A (A ≦ 0.3) | > 100 | > 100
5 | Cc1csc2nc(C(O)c3ccc(F)cc3)nc(Nc3cc[nH]n3)c12 (racemic) [Example 13, (R,S)-(4-(1H-pyrazol-3-ylamino)-5-methylthieno[2,3-d]pyrimidin-2-yl)(4-fluorophenyl)methanol] | > 500 | > 10 | A (A ≦ 0.3) | > 100 | > 100
6 | Cc1cc(Nc2nc(C(O)c3ccc(F)cc3)nc3sc(C)cc23)n[nH]1 (racemic) [Example 16, (R,S)-(4-fluorophenyl)(6-methyl-4-(5-methyl-1H-pyrazol-3-ylamino)thieno[2,3-d]pyrimidin-2-yl)methanol] | ≤ 100 | ≤ 1 | C (0.4 < C ≦ 0.5) | 10 to 100 | ≤ 10
7 | Cc1cc2c(Nc3cc[nH]n3)nc(C(O)c3ccc(F)cc3)nc2s1 (racemic) [Example 17, (R,S)-(4-(1H-pyrazol-3-ylamino)-6-methylthieno[2,3-d]pyrimidin-2-yl)(4-fluorophenyl)methanol] | 100 to 500 | ≤ 1 | A (A ≦ 0.3) | 10 to 100 | > 100
8 | Cc1cc(Nc2nc(C(C)(O)c3ccc(F)cc3)nc3ccsc23)n[nH]1 (racemic) [Example 18, (R,S)-1-(4-fluorophenyl)-1-(4-(5-methyl-1H-pyrazol-3-ylamino)thieno[3,2-d]pyrimidin-2-yl)ethanol] | ≤ 100 | ≤ 1 | – | ≤ 10 | ≤ 10
9 | Cc1cc(Nc2nc(C(O)c3ccc(F)cc3)nc3cc(C)sc23)n[nH]1 (racemic) [Example 21, (R,S)-(4-fluorophenyl)(6-methyl-4-(5-methyl-1H-pyrazol-3-ylamino)thieno[3,2-d]pyrimidin-2-yl)methanol] | ≤ 100 | ≤ 1 | B (0.3 < B ≦ 0.4) | ≤ 10 | ≤ 10
10 | CC(C)(C)c1cc2nc(C(O)c3ccc(F)cc3)nc(Nc3cc[nH]n3)c2s1 (racemic) [Example 29, (R,S)-(4-(1H-pyrazol-3-ylamino)-6-tert-butylthieno[3,2-d]pyrimidin-2-yl)(4-fluorophenyl)methanol] | 100 to 500 | 1 to 10 | A (A ≦ 0.3) | > 100 | > 100
11 | Cc1cc(Nc2nc(C(O)c3ccc(F)cc3)nc3cscc23)n[nH]1 (racemic) [Example 32, (R,S)-(4-fluorophenyl)(4-(5-methyl-1H-pyrazol-3-ylamino)thieno[3,4-d]pyrimidin-2-yl)methanol] | ≤ 100 | ≤ 1 | B (0.3 < B ≦ 0.4) | ≤ 10 | ≤ 10
12 | Cc1cc(Nc2nc(C(F)(F)c3ccc(F)cc3)nc3sccc23)n[nH]1 [Example 1, 2-(difluoro(4-fluorophenyl)methyl)-N-(5-methyl-1H-pyrazol-3-yl)thieno[2,3-d]pyrimidin-4-amine] | ≤ 100 | ≤ 1 | B (0.3 < B ≦ 0.4) | ≤ 10 | ≤ 10
13 | Fc1ccc(C(F)(F)c2nc(Nc3cc[nH]n3)c3ccsc3n2)cc1 [Example 2, 2-(difluoro(4-fluorophenyl)methyl)-N-(1H-pyrazol-3-yl)thieno[2,3-d]pyrimidin-4-amine] | ≤ 100 | ≤ 1 | A (A ≦ 0.3) | 10 to 100 | ≤ 10
14 | Cc1csc2c(Nc3cc[nH]n3)nc(C(O)c3ccc(F)cc3)nc12 (stereo not drawn) [Example 25, (4-(1H-Pyrazol-3-ylamino)-7-methylthieno[3,2-d]pyrimidin-2-yl)(4-fluorophenyl)methanol] | 100 to 500 | 1 to 10 | – | 10 to 100 | ≤ 10
15 | Cc1cc2c(Nc3cn(C)cn3)nc(C(O)c3ccc(F)cc3)nc2s1 (stereo not drawn) [Example 34, (4-fluorophenyl)(6-methyl-4-(1-methyl-1H-imidazol-4-ylamino)thieno[2,3-d]pyrimidin-2-yl)methanol] | 100 to 500 | ≤ 1 | A (A ≦ 0.3) | > 100 | –
